In patent US9012642B2, “Pyrrolopyridinone compounds and methods for treating HIV” (ViiV Healthcare UK Limited, priority 2011, dated 2015):
Where a name gives a salt, the structure may show the parent alone. Read-outs that look alike come from different tables or passages of the source.

System: HIV
Test: HIV MT4 Assay (antiviral HIV activity in MT-4 cells)
Assay type: cell-based
Procedure: Antiviral HIV activity and cytotoxicity values for compounds of the invention from Table 1 were measured in parallel in the HTLV-1 transformed cell line MT-4 based on the method previously described (Hazen et al., 2007, In vitro antiviral activity of the novel, tyrosyl-based human immunodeficiency virus (HIV) type 1 protease inhibitor brecanavir (GW640385) in combination with other antiretrovirals and against a panel of protease inhibitor-resistant HIV (Hazen et al., “In vitro antiviral activity of the novel, tyrosyl-based human immunodeficiency virus (HIV) type 1 protease inhibitor brecanavir (GW640385) in combination with other antiretrovirals and against a panel of protease inhibitor-resistant HIV”, Antimicrob. Agents Chemother. 2007, 51: 3147-3154; and Pauwels et al., “Sensitive and rapid assay on MT-4 cells for the detection of antiviral compounds against the AIDS virus”, (J. of Virological Methods 1987, 16: 171-185).
Luciferase activity was measured 96 hours later by adding a cell titer glo (Promega, Madison, Wis.). Percent inhibition of cell protection data was plotted relative to no compound control. Under the same condition, cytotoxicity of the compounds was determined using cell titer Glo™ (Promega, Madison, Wis.). IC50s were determined from a 10 point dose response curve using 3-4-fold serial dilution for each compound, which spans a concentration range >1000 fold.
These values are plotted against the molar compound concentrations using the standard four parameter logistic equation: y=((Vmax*x^n)/(K^n+x^n))+Y^2
Y^2=minimum y n=slope factor
Vmax=maximum y x=compound concentration [M]

[1] = Human immunodeficiency virus 1, MT4, HTLV-1 transformed cell line MT-4, luciferase activity measured 96 hours later, Table 3, read-out: HIV MT4 Assay IC50
[2] = MT4, 96 h, read-out: MT4 (IC50)

Structure (SMILES) | IC50 [1] [nM] | IC50 [2] [nM]
Cc1ccc(-c2c(C(OC(C)(C)C)C(=O)O)n(C)c(=O)c3c2c2ccccc2n3Cc2ccc(F)cc2)cc1 (stereo not drawn) [Example 56, 2-(tert-butoxy)-2-(9-(4-fluorobenzyl)-2-methyl-1-oxo-4-(p-tolyl)-2,9-dihydro-1H-pyrido[3,4-b]indol-3-yl)acetic acid] | 740 | 740
Cc1c(-c2c(C(OC(C)(C)C)C(=O)O)n(C)c(=O)c3c2ccn3Cc2cscn2)ccc2c1CCCO2 (stereo not drawn) [Example 50, 2-(tert-butoxy)-2-(6-methyl-4-(5-methylchroman-6-yl)-7-oxo-1-(thiazol-4-ylmethyl)-6,7-dihydro-1H-pyrrolo[2,3-c]pyridin-5-yl)acetic acid, Trifluoroacetic acid salt] | 230 | 230
Cc1c(-c2c(C(OC(C)(C)C)C(=O)O)n(C)c(=O)c3c2ccn3Cc2ccccc2)ccc2c1CCCO2 (stereo not drawn) [Example 38, 2-(1-benzyl-6-methyl-4-(5-methylchroman-6-yl)-7-oxo-6,7-dihydro-1H-pyrrolo[2,3-c]pyridin-5-yl)-2-(tert-butoxy)acetic acid] | 70 | 70
Cc1ccc(-c2c(C(OC(C)(C)C)C(=O)O)n(C)c(=O)c3c2ccn3CC(=O)Nc2ccc(F)cc2)cc1 (stereo not drawn) [Example 35, 2-(tert-butoxy)-2-(1-(2-((4-fluorophenyl)amino)-2-oxoethyl)-6-methyl-7-oxo-4-(p-tolyl)-6,7-dihydro-1H-pyrrolo[2,3-c]pyridin-5-yl)acetic acid] | 1000 | 1000
Cc1c(-c2c(C(OC(C)(C)C)C(=O)O)n(C)c(=O)c3c2ccn3Cc2ccc(C(F)(F)F)cc2)ccc2c1CCCO2 (stereo not drawn) [Example 46, 2-(tert-butoxy)-2-(6-methyl-4-(5-methylchroman-6-yl)-7-oxo-1-(4-(trifluoromethyl)benzyl)-6,7-dihydro-1H-pyrrolo[2,3-c]pyridin-5-yl)acetic acid] | 90 | 90
COc1ccc(Cn2c3c(c4c(-c5ccc(C)cc5)c(C(OC(C)(C)C)C(=O)O)n(C)c(=O)c42)CCCC3)cc1 (stereo not drawn) [Example 61, 2-(tert-butoxy)-2-(9-(4-methoxybenzyl)-2-methyl-1-oxo-4-(p-tolyl)-2,5,6,7,8,9-hexahydro-1H-pyrido[3,4-b]indol-3-yl)acetic acid] | 100 | 100
Cc1ccc(-c2c(C(OC(C)(C)C)C(=O)O)n(C)c(=O)c3c2ccn3Cc2ccc(SC(F)(F)F)cc2)cc1 (stereo not drawn) [Example 23, 2-(tert-butoxy)-2-(6-methyl-7-oxo-4-(p-tolyl)-1-(4-((trifluoromethyl)thio)benzyl)-6,7-dihydro-1H-pyrrolo[2,3-c]pyridin-5-yl)acetic acid] | 1500 | 1500
Cc1c(-c2c(C(OC(C)(C)C)C(=O)O)n(C)c(=O)c3c2cnn3Cc2ccc(F)cc2)ccc2c1CCCO2 (stereo not drawn) [Example 67, 2-(tert-butoxy)-2-(1-(4-fluorobenzyl)-6-methyl-4-(5-methylchroman-6-yl)-7-oxo-6,7-dihydro-1H-pyrazolo[3,4-c]pyridin-5-yl)acetic acid] | 80 | 80
Cc1ccc(-c2c(C(OC(C)(C)C)C(=O)O)n(C)c(=O)c3c2ccn3C)cc1 (stereo not drawn) [Example 30, 2-(tert-butoxy)-2-(1,6-dimethyl-7-oxo-4-(p-tolyl)-6,7-dihydro-1H-pyrrolo[2,3-c]pyridin-5-yl)acetic acid] | 1100 | 1100
Cc1ccc(-c2c(C(OC(C)(C)C)C(=O)O)n(C)c(=O)c3c2cnn3Cc2ccc(F)cc2)cc1 (stereo not drawn) [Example 64, 2-(tert-Butoxy)-2-(1-(4-fluorobenzyl)-6-methyl-7-oxo-4-(p-tolyl)-6,7-dihydro-1H-pyrazolo[3,4-c]pyridin-5-yl)acetic acid] | 180 | 180
Cc1c(-c2c(C(OC(C)(C)C)C(=O)O)n(C)c(=O)c3c2ccn3Cc2cccc(F)c2)ccc2c1CCCO2 (stereo not drawn) [Example 45, 2-(tert-butoxy)-2-(1-(3-fluorobenzyl)-6-methyl-4-(5-methylchroman-6-yl)-7-oxo-6,7-dihydro-1H-pyrrolo[2,3-c]pyridin-5-yl)acetic acid] | 80 | 80
Cc1c(-c2c(C(OC(C)(C)C)C(=O)O)n(C)c(=O)c3c2ccn3Cc2ccc(Cl)cc2)ccc2c1CCCO2 (stereo not drawn) [Example 44, 2-(tert-butoxy)-2-(1-(4-chlorobenzyl)-6-methyl-4-(5-methylchroman-6-yl)-7-oxo-6,7-dihydro-1H-pyrrolo[2,3-c]pyridin-5-yl)acetic acid] | 50 | 50
COc1ccc(Cn2ccc3c(-c4ccc5c(c4C)CCCO5)c(C(OC(C)(C)C)C(=O)O)n(C)c(=O)c32)cc1 (atropisomer, axis not shown; (M)) [Example 53, (S)(M)-2-(tert-butoxy)-2-(1-(4-methoxybenzyl)-6-methyl-4-(5-methylchroman-6-yl)-7-oxo-6,7-dihydro-1H-pyrrolo[2,3-c]pyridin-5-yl)acetic acid] | 10 | 10
Cc1c(-c2c(C(OC(C)(C)C)C(=O)O)n(C)c(=O)c3c2ccn3CC2CCOCC2)ccc2c1CCCO2 (stereo not drawn) [Example 52, 2-(tert-butoxy)-2-(6-methyl-4-(5-methylchroman-6-yl)-7-oxo-1-((tetrahydro-2H-pyran-4-yl)methyl)-6,7-dihydro-1H-pyrrolo[2,3-c]pyridin-5-yl)acetic acid] | 350 | 350
Cc1ccc(-c2c(C(OC(C)(C)C)C(=O)O)n(C)c(=O)c3c2ccn3Cc2ccc(C(N)=O)cc2)cc1 (stereo not drawn) [Example 22, 2-(tert-butoxy)-2-(1-(4-carbamoylbenzyl)-6-methyl-7-oxo-4-(p-tolyl)-6,7-dihydro-1H-pyrrolo[2,3-c]pyridin-5-yl)acetic acid] | 8700 | 8700
Cc1ccc(-c2c(C(OC(C)(C)C)C(=O)O)n(C)c(=O)c3c2c2c(n3Cc3ccc(F)cc3)CCOC2)cc1 (stereo not drawn) [Example 58, 2-(tert-butoxy)-2-(5-(4-fluorobenzyl)-7-methyl-6-oxo-9-(p-tolyl)-1,3,4,5,6,7-hexahydropyrano[3′,4′:4,5]pyrrolo[2,3-c]pyridin-8-yl)acetic acid] | 750 | 750
Cc1c(-c2c(C(OC(C)(C)C)C(=O)O)n(C)c(=O)c3c2ccn3Cc2ccc(F)cc2)ccc2c1CCCO2 (atropisomer, axis not shown; (M)) [Example 41, (S)(M)-2-(tert-butoxy)-2-(1-(4-fluorobenzyl)-6-methyl-4-(5-methylchroman-6-yl)-7-oxo-6,7-dihydro-1H-pyrrolo[2,3-c]pyridin-5-yl)acetic acid] | 10 | 10
Cc1ccc(-c2c(C(OC(C)(C)C)C(=O)O)n(C)c(=O)c3c2c2c(n3C)CCCC2)cc1 (stereo not drawn) [Example 60, 2-(tert-butoxy)-2-(2,9-dimethyl-1-oxo-4-(p-tolyl)-2,5,6,7,8,9-hexahydro-1H-pyrido[3,4-b]indol-3-yl)acetic acid] | 50 | 50
COCCn1ccc2c(-c3ccc4c(c3C)CCCO4)c(C(OC(C)(C)C)C(=O)O)n(C)c(=O)c21 (stereo not drawn) [Example 43, 2-(tert-butoxy)-2-(1-(2-methoxyethyl)-6-methyl-4-(5-methylchroman-6-yl)-7-oxo-6,7-dihydro-1H-pyrrolo[2,3-c]pyridin-5-yl)acetic acid] | 1100 | 1100
Cc1c(-c2c(C(OC(C)(C)C)C(=O)O)n(C)c(=O)c3c2ccn3Cc2cc(F)ccc2F)ccc2c1CCCO2 (stereo not drawn) [Example 48, 2-(tert-butoxy)-2-(1-(2,5-difluorobenzyl)-6-methyl-4-(5-methylchroman-6-yl)-7-oxo-6,7-dihydro-1H-pyrrolo[2,3-c]pyridin-5-yl)acetic acid] | 30 | 30
Cc1ccc(-c2c(C(OC(C)(C)C)C(=O)O)n(C)c(=O)c3c2ccn3Cc2ccc(F)c(F)c2)cc1 (stereo not drawn) [Example 28, 2-(tert-butoxy)-2-(1-(3,4-difluorobenzyl)-6-methyl-7-oxo-4-(p-tolyl)-6,7-dihydro-1H-pyrrolo[2,3-c]pyridin-5-yl)acetic acid] | 80 | 80
Cc1ccc(-c2c(C(OC(C)(C)C)C(=O)O)n(C)c(=O)c3c2ccn3CCc2ccc(F)cc2)cc1 (stereo not drawn) [Example 26, 2-(tert-butoxy)-2-(1-(4-fluorophenethyl)-6-methyl-7-oxo-4-(p-tolyl)-6,7-dihydro-1H-pyrrolo[2,3-c]pyridin-5-yl)acetic acid] | 2250 | 2250
Cc1ccc(-c2c(C(OC(C)(C)C)C(=O)O)n(C)c(=O)c3c2c2ccccc2n3C)cc1 (stereo not drawn) [Example 57, 2-(tert-butoxy)-2-(2,9-dimethyl-1-oxo-4-(p-tolyl)-2,9-dihydro-1H-pyrido[3,4-b]indol-3-yl)acetic acid] | 80 | 80
CC(C)Cn1ccc2c(-c3ccc(Cl)cc3)c(C(OC(C)(C)C)C(=O)O)n(C)c(=O)c21 (stereo not drawn) [Example 5, 2-(tert-butoxy)-2-(4-(4-chlorophenyl)-1-isobutyl-6-methyl-7-oxo-6,7-dihydro-1H-pyrrolo[2,3-c]pyridin-5-yl)acetic acid] | 5000 | 5000
